Test results taken from the NIST ThermoML archive (doi:10.1021/je700260f).

Conditions: 303.15 K, Liquid, Vibrating tube method

FC(C(F)(F)F)C(F)(F)F [1,1,1,2,3,3,3-heptafluoropropane]
Conditions | mass density [kg/m3]
8067 kPa | 1421.1
8093 kPa | 1421.3
8123 kPa | 1421.4
8152 kPa | 1421.5
8181 kPa | 1421.9
8211 kPa | 1422
8250 kPa | 1422.2
8280 kPa | 1422.3
8306 kPa | 1422.5
8340 kPa | 1422.8
8378 kPa | 1423
8411 kPa | 1423.1
8436 kPa | 1423.4
8471 kPa | 1423.6
8496 kPa | 1423.6
8526 kPa | 1423.9
8556 kPa | 1423.9
8581 kPa | 1424.3
8610 kPa | 1424.4
8640 kPa | 1424.4
8671 kPa | 1424.6
8697 kPa | 1424.8
8726 kPa | 1425
8752 kPa | 1425.2
8778 kPa | 1425.4
8808 kPa | 1425.5
8847 kPa | 1425.8
8873 kPa | 1425.9
8908 kPa | 1426.2
8947 kPa | 1426.2
8978 kPa | 1426.5
9004 kPa | 1426.6
9031 kPa | 1426.8
9066 kPa | 1426.9
9263 kPa | 1428.1
9299 kPa | 1428.3
9334 kPa | 1428.5
9370 kPa | 1428.6
9401 kPa | 1428.9
9445 kPa | 1429.1
9480 kPa | 1429.3
9502 kPa | 1429.4
9533 kPa | 1429.7
9567 kPa | 1429.9
9598 kPa | 1429.9
9634 kPa | 1430.2
9661 kPa | 1430.3
9693 kPa | 1430.5
9720 kPa | 1430.6
9747 kPa | 1430.8
9779 kPa | 1431.1
9806 kPa | 1431.2
9833 kPa | 1431.3
9878 kPa | 1431.5
9906 kPa | 1431.7
9938 kPa | 1431.8
9969 kPa | 1432.1
9996 kPa | 1432.3
10037 kPa | 1432.6
10069 kPa | 1432.6
10110 kPa | 1432.8
10137 kPa | 1433
10174 kPa | 1433.2
10201 kPa | 1433.4
10228 kPa | 1433.5
10255 kPa | 1433.7
10278 kPa | 1433.7
10311 kPa | 1434
10343 kPa | 1434
10379 kPa | 1434.3
10406 kPa | 1434.4
10434 kPa | 1434.6
10466 kPa | 1434.8
10494 kPa | 1434.9
10531 kPa | 1435.1
10559 kPa | 1435.3
10596 kPa | 1435.4
10629 kPa | 1435.8
10662 kPa | 1436
10695 kPa | 1436
10725 kPa | 1436.2
10753 kPa | 1436.4
10791 kPa | 1436.6
10824 kPa | 1436.9
10960 kPa | 1437.4
11032 kPa | 1437.7
11066 kPa | 1438
11105 kPa | 1438.2
11143 kPa | 1438.4
11183 kPa | 1438.6
11218 kPa | 1438.8
11258 kPa | 1439.1
11297 kPa | 1439.2
11332 kPa | 1439.3
11372 kPa | 1439.7
11402 kPa | 1439.8
11442 kPa | 1439.8
11473 kPa | 1440.1
11525 kPa | 1440.4
11555 kPa | 1440.6
11599 kPa | 1440.8
11633 kPa | 1441
11668 kPa | 1441.2
11703 kPa | 1441.2
11734 kPa | 1441.6
11770 kPa | 1441.7
11800 kPa | 1442
11840 kPa | 1442.2
11875 kPa | 1442.2
11915 kPa | 1442.5
11952 kPa | 1442.7
11987 kPa | 1442.8
12022 kPa | 1443
12052 kPa | 1443.3
12404 kPa | 1444.9
12445 kPa | 1445.1
12481 kPa | 1445.4
12527 kPa | 1445.6
12558 kPa | 1445.7
12595 kPa | 1446
12631 kPa | 1446.1
12681 kPa | 1446.4
12722 kPa | 1446.5
12752 kPa | 1446.7
12793 kPa | 1447
12830 kPa | 1447.2
12877 kPa | 1447.5
12924 kPa | 1447.5
12965 kPa | 1447.8
12995 kPa | 1447.8
13030 kPa | 1448.2
13077 kPa | 1448.3
13108 kPa | 1448.5
13150 kPa | 1448.8
13186 kPa | 1448.9
13229 kPa | 1449.2
13275 kPa | 1449.4
13317 kPa | 1449.6
13364 kPa | 1449.7
13400 kPa | 1449.9
13432 kPa | 1450.1
13468 kPa | 1450.3
13516 kPa | 1450.6
13547 kPa | 1450.6
13593 kPa | 1450.8
13620 kPa | 1451.1
13652 kPa | 1451.1
13689 kPa | 1451.3
13730 kPa | 1451.6
13762 kPa | 1451.7
13794 kPa | 1451.9
13826 kPa | 1452
13867 kPa | 1452.1
13900 kPa | 1452.4
13937 kPa | 1452.6
13966 kPa | 1452.7
14003 kPa | 1452.9
14032 kPa | 1453.1
14069 kPa | 1453.3
14113 kPa | 1453.4
14146 kPa | 1453.5
14189 kPa | 1453.8
14223 kPa | 1454.1
14261 kPa | 1454.1
14289 kPa | 1454.2
14322 kPa | 1454.4
14355 kPa | 1454.7
14388 kPa | 1454.9
14416 kPa | 1455
14450 kPa | 1455
14493 kPa | 1455
14521 kPa | 1455.4
14555 kPa | 1455.5
14875 kPa | 1457.1
14909 kPa | 1457.2
14938 kPa | 1457.4
14981 kPa | 1457.7
15024 kPa | 1457.9
15062 kPa | 1457.8
15091 kPa | 1458
15121 kPa | 1458.3
15159 kPa | 1458.3
15193 kPa | 1458.5
15222 kPa | 1458.7
15252 kPa | 1458.8
15283 kPa | 1459
15317 kPa | 1459.2
15351 kPa | 1459.2
15389 kPa | 1459.5
15422 kPa | 1459.6
15461 kPa | 1459.8
15500 kPa | 1459.9
15540 kPa | 1460.2
15578 kPa | 1460.3
15623 kPa | 1460.4
15662 kPa | 1460.6
15692 kPa | 1460.8
15721 kPa | 1461.1
15751 kPa | 1461.1
15780 kPa | 1461.1
15805 kPa | 1461.3
15840 kPa | 1461.4
15879 kPa | 1461.7
15914 kPa | 1461.8
15948 kPa | 1462
